In patent publication US4332805A, “Decahydroquinolinol derivatives and methods of treating cardiac arrythmias or inducing local anaesthesia with them” (priority 1979, dated 1982):
Counter-ions that a name gives are not always drawn.

Assay: LAWSON test: protection against chloroform-induced ventricular fibrillation
Type: in vivo, mice
Conditions: female mice, intragastric, 30 minutes before chloroform, salts (hydrochloride); for ED50: Mus musculus, po, 0.5 h, read-out: AD50 (dose protecting 50% of the animals against ventricular fibrillation)
Method: The arrhythmia was induced, in this test, by inhalation of chloroform until breathing stopped.
For each dose of the substance to be studied, batches of 10 female mice, each of about 20 g, were used. These mice had been fasting for 18 hours before the test. A batch of 10 animals was used as control group.
A dose of the compound to be studied was first administered by intragastric route except to the controls which only received the solvent used with the compound in question. Thirty minutes later, the animals were placed under a dome-shaped receptacle containing a high concentration of chloroform obtained by means of a strongly impregnated pad.
The animals were removed when totally asphyxiated (about 2 minutes later), the thorax was rapidly opened and the ventricular rhythm observed. The dose of the compound under study which protected 50% of the animals against ventricular fibrillation was then determined.
This protective dose is expressed as AD50 in mg/kg in the following Table. […]
Another comparative test was performed under the same conditions with
several compounds included within the scope of U.S. Pat. No. 3,882,129 at
the single dose of 100 mg/kg by intragastric route.
The following results were obtained which are expressed in percentage of protection obtained against the arrhythmic effect at the studied dose: […]

Structure (SMILES)	ED50	AD50 (dose protecting 50% of the animals against ventricular fibrillation)
COc1cc(C(C)=O)ccc1OCCCN1CC[C@@H](OC(=O)Nc2ccc(Br)cc2)[C@H]2CCCC[C@@H]21 (relative stereo) [1-[3-(4-Acetyl-2-methoxy-phenoxy)-propyl]-4-[4-(bromo-phenyl)-carbamoyloxy]-trans-decahydroquinoline hydrochloride (axial form)]	> 100 mg/kg	–
COc1cc(C(C)=O)ccc1OCCCN1CC[C@@H](OC(N)=O)[C@H]2CCCC[C@@H]21 (relative stereo) [1-[3-(4-Acetyl-2-methoxy-phenoxy)-propyl]-4-carbamoyloxy-trans-decahydroquinoline hydrochloride (axial form)]	> 100 mg/kg	–
NC(=O)O[C@@H]1CCN(CCOc2c(Cl)cccc2Cl)[C@H]2CCCC[C@H]12 (relative stereo) [4-Carbamoyloxy-1-[2-(2,6-dichloro-phenoxy)-ethyl]-trans-decahydroquinoline hydrochloride (axial form)]	50 mg/kg	–
NC(=O)O[C@H]1CCN(CCCOc2ccc(F)cc2)[C@H]2CCCC[C@H]12 (relative stereo) [4-Carbamoyloxy-1-[3-(4-fluoro-phenoxy)-propyl]-trans-decahydroquinoline hydrochloride (equatorial form)]	45 mg/kg	–
Cc1ccc(NC(=O)O[C@@H]2CCN(CCCOc3ccc(F)cc3)[C@H]3CCCC[C@H]23)cc1Cl (relative stereo) [4-[3-(Chloro-4-methyl-phenyl)-carbamoyloxy]-1-[3-(4-fluoro-phenoxy)-propyl]-trans-decahydroquinoline hydrochloride (axial form)]	> 100 mg/kg	–
Cc1ccc(NC(=O)O[C@H]2CCN(CCCOc3ccc(F)cc3)[C@H]3CCCC[C@H]23)cc1Cl (relative stereo) [4-[(3-Chloro-4-methyl-phenyl)-carbamoyloxy]-1-[3-(4-fluoro-phenoxy)-propyl]-trans-decahydroquinoline hydrochloride (equatorial form)]	30 mg/kg	–
O=C(Nc1ccc(Br)cc1)O[C@H]1CCN(CCCOc2ccc(F)cc2)[C@H]2CCCC[C@H]12 (relative stereo) [4-[(4-Bromo-phenyl)-carbamoyloxy]-1-[3-(4-fluoro-phenoxy)-propyl]-trans-decahydroquinoline hydrochloride (equatorial form)]	120 mg/kg	–
O=C(Nc1ccc(Br)cc1)O[C@@H]1CCN(CCCOc2ccc(F)cc2)[C@H]2CCCC[C@H]12 (relative stereo) [4-[(4-Bromo-phenyl)-carbamoyloxy]-[1-3-(4-fluoro-phenoxy)-propyl]-trans-decahydroquinoline hydrochloride (axial form)]	150 mg/kg	–
CCNC(=O)O[C@@H]1CCN(CCCOc2ccc(F)cc2)[C@H]2CCCC[C@H]12 (relative stereo) [ethyl, 3, O, 4-fluoro-phenyl, axial, 4-(N-Ethylcarbamoyloxy)-1-[3-(4-fluoro-phenoxy)-propyl]-trans-decahydroquinoline hydrochloride (axial form)]	50 mg/kg	–
NC(=O)O[C@@H]1CCN(CCOc2cccc3ccccc23)[C@H]2CCCC[C@H]12 (relative stereo) [hydrogen, 2, O, 1-naphthyl, axial, 4-Carbamoyloxy-1-[2-(1-naphthyloxy)-ethyl]-trans-decahydroquinoline hydrochloride (axial form)]	75 mg/kg	–
COc1ccccc1OCCN1CC[C@@H](OC(N)=O)[C@H]2CCCC[C@@H]21 (relative stereo) [hydrogen, 2, O, 2-methoxy-phenyl, axial, 4-Carbamoyloxy-1-[2-(2-methoxy-phenoxy)-ethyl]-trans-decahydroquinoline hydrochloride (axial form)]	75 mg/kg	–
NC(=O)O[C@@H]1CCN(CCOc2ccc3ccccc3c2)[C@H]2CCCC[C@H]12 (relative stereo) [hydrogen, 2, O, 2-naphthyl, axial, 4-Carbamoyloxy-1-[2-(2-naphthyloxy)-ethyl]-trans-decahydroquinoline hydrochloride (axial form)]	50 mg/kg	–
NC(=O)O[C@@H]1CCN(CCOc2ccc(Br)cc2)[C@H]2CCCC[C@H]12 (relative stereo) [hydrogen, 2, O, 4-bromo-phenyl, axial, 1-[2-(4-Bromo-phenoxy)-ethyl]-4 carbamoyloxy-trans-decahydroquinoline hydrochloride (axial form)]	90 mg/kg	–
NC(=O)O[C@@H]1CCN(CCOc2ccc(F)cc2)[C@H]2CCCC[C@H]12 (relative stereo) [hydrogen, 2, O, 4-fluoro-phenyl, axial, 4-Carbamoyloxy-1-[2-(4-fluoro-phenoxy)-ethyl]-trans-decahydroquinoline hydrochloride (axial form)]	> 100 mg/kg	–
NC(=O)O[C@@H]1CCN(CCCOc2cccc3ccccc23)[C@H]2CCCC[C@H]12 (relative stereo) [hydrogen, 3, O, 1-naphthyl, axial, 4-Carbamoyloxy-1-[3-(1-naphthyloxy)-propyl]-trans-decahydroquinoline hydrochloride (axial form)]	> 100 mg/kg	–
NC(=O)O[C@@H]1CCN(CCCOc2ccc3ccccc3c2)[C@H]2CCCC[C@H]12 (relative stereo) [hydrogen, 3, O, 2-naphthyl, axial, 4-Carbamoyloxy-1-[3-(2-naphthyloxy)-propyl]-trans-decahydroquinoline hydrochloride (axial form)]	> 100 mg/kg	–
CC(=O)c1ccc(OCCCN2CC[C@@H](OC(N)=O)[C@H]3CCCC[C@@H]32)cc1 (relative stereo) [hydrogen, 3, O, 4-acetyl-phenyl, axial, 1-[3-(4-Acetyl-phenoxy)-propyl]-4-carbamoyloxy-trans-decahydroquinoline hydrochloride (axial form)]	> 100 mg/kg	–
NC(=O)O[C@@H]1CCN(CCCOc2ccc(Br)cc2)[C@H]2CCCC[C@H]12 (relative stereo) [hydrogen, 3, O, 4-bromo-phenyl, axial, 1-[3-(4-Bromo-phenoxy)-propyl]-4-carbamoyloxy-trans-decahydroquinoline hydrochloride (axial form)]	65 mg/kg	–
NC(=O)O[C@@H]1CCN(CCCOc2ccc(Cl)cc2)[C@H]2CCCC[C@H]12 (relative stereo) [hydrogen, 3, O, 4-chloro-phenyl, axial, 4-Carbamoyloxy-1-[3-(4-chloro-phenoxy)-propyl]-trans-decahydroquinoline hydrochloride (axial form)]	> 100 mg/kg	–
N#Cc1ccc(OCCCN2CC[C@@H](OC(N)=O)[C@H]3CCCC[C@@H]32)cc1 (relative stereo) [hydrogen, 3, O, 4-cyano-phenyl, axial, 4-Carbamoyloxy-1-[3-(4-cyano-phenoxy)-propyl]-trans-decahydroquinoline hydrochloride (axial form)]	30 mg/kg	–
COc1ccc(OCCCN2CC[C@@H](OC(N)=O)[C@H]3CCCC[C@@H]32)cc1 (relative stereo) [hydrogen, 3, O, 4-methoxy-phenyl, axial, 4-Carbamoyloxy-1-[3-(4-methoxy-phenoxy)-propyl]-trans-decahydroquinoline hydrochloride (axial form)]	> 100 mg/kg	–
Cc1ccc(OCCCN2CC[C@@H](OC(N)=O)[C@H]3CCCC[C@@H]32)cc1 (relative stereo) [hydrogen, 3, O, 4-methyl-phenyl, axial, 4-Carbamoyloxy-1-[3-(4-methyl-phenoxy)-propyl]-trans-decahydroquinoline hydrochloride (axial form)]	> 100 mg/kg	–
NC(=O)O[C@@H]1CCN(CCCOc2ccccc2)[C@H]2CCCC[C@H]12 (relative stereo) [hydrogen, 3, O, phenyl, axial, 4-Carbamoyloxy-1-(3-phenoxy-propyl)-trans-decahydroquinoline hydrochloride (axial form)]	> 100 mg/kg	–
NC(=O)O[C@@H]1CCN(CCCSc2ccc(F)cc2)[C@H]2CCCC[C@H]12 (relative stereo) [hydrogen, 3, S, 4-fluoro-phenyl, axial, 4-Carbamoyloxy-1-[3-(4-fluoro-phenylthio)-propyl]-trans-decahydroquinoline hydrochloride (axial form)]	> 100 mg/kg	–
CNC(=O)O[C@@H]1CCN(CCCOc2ccc(F)cc2)[C@H]2CCCC[C@H]12 (relative stereo) [methyl, 3, O, 4-fluoro-phenyl, axial, 1-[3-(4-Fluoro-phenoxy)-propyl]-4-(N-methylcarbamoyloxy)-trans-decahydroquinoline hydrochloride (axial form)]	–	55 mg/kg
CCCCNC(=O)O[C@@H]1CCN(CCCOc2ccc(F)cc2)[C@H]2CCCC[C@H]12 (relative stereo) [n-butyl, 3, O, 4-fluoro-phenyl, axial, 4-(N-n-butylcarbamoyloxy)-1-[3-(4-fluoro-phenoxy)-propyl]-trans-decahydroquinoline hydrochloride (axial form)]	50 mg/kg	–
CCCNC(=O)O[C@@H]1CCN(CCCOc2ccc(F)cc2)[C@H]2CCCC[C@H]12 (relative stereo) [n-propyl, 3, O, 4-fluoro-phenyl, axial, 1-[3-(4-Fluoro-phenoxy)-propyl]-4-(N-n-propyl-carbamoyloxy)-trans-decahydroquinoline hydrochloride (axial form)]	80 mg/kg	–
